According to ChEMBL document CHEMBL4706656, “Ifenprodil Stereoisomers: Synthesis, Absolute Configuration, and Correlation with Biological Activity” (J Med Chem, 2021):

How the values were obtained:
[1] = biological target: T1, Alpha-2A adrenergic receptor (Homo sapiens, UniProt P08913); assay: Displacement of [3H]RX821002 from alpha-2A adrenergic receptor (unknown origin)
T1 sequence (P08913 whole entry): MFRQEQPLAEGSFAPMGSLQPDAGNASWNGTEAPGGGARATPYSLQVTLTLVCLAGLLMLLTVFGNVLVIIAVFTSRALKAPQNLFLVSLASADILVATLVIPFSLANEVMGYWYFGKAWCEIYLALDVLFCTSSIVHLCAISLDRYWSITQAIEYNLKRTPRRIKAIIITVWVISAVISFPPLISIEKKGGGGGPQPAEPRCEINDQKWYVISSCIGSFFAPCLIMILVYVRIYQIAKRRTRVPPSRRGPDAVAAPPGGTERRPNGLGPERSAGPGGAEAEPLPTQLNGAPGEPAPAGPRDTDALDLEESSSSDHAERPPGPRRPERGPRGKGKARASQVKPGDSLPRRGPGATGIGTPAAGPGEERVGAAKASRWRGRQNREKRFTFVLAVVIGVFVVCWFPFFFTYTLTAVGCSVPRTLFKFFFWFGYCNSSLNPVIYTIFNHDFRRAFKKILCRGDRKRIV

[2] = biological target: T2, Alpha-1A adrenergic receptor (Homo sapiens, UniProt P35348); assay: Displacement of [3H]prazosin from alpha-1A adrenergic receptor (unknown origin)
T2 sequence (P35348 whole entry): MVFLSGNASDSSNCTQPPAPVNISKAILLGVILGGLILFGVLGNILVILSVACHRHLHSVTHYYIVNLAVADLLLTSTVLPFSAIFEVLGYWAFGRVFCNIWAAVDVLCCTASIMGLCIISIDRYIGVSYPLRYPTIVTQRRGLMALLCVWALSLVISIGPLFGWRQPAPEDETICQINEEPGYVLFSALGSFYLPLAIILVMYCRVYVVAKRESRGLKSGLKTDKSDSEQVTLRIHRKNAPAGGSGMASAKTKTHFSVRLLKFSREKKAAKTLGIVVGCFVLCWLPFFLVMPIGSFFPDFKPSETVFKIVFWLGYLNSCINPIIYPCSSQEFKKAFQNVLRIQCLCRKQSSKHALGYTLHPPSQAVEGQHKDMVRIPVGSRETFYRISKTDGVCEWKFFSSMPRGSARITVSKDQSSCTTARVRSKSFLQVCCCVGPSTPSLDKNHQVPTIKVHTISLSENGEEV

[3] = biological target: T3, 5-hydroxytryptamine receptor 2C (Homo sapiens, UniProt P28335); assay: Binding affinity to 5-HT2C receptor (unknown origin) incubated for 1 hr by radioligand binding assay
T3 sequence (P28335 whole entry): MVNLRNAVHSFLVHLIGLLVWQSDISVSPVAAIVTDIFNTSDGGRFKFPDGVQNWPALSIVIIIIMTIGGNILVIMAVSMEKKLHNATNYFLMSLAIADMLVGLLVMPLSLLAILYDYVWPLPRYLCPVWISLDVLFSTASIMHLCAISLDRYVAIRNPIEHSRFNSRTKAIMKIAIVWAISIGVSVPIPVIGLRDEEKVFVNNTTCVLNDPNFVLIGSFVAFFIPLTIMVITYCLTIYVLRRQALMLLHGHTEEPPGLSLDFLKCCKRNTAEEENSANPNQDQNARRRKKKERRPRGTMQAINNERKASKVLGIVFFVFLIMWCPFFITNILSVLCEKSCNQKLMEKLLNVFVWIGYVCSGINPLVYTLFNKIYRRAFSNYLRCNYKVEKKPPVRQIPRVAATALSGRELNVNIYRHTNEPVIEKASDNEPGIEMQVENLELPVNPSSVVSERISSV

[4] = biological target: 5-hydroxytryptamine receptor 7 (Homo sapiens, UniProt P34969); assay: Displacement of [3H]-5-CT from human 5-HT7B receptor expressed in HEK293 cells incubated for 1 hr by radioligand binding assay; assay type: cell-based
[5] = biological target: 5-hydroxytryptamine receptor 2A (Homo sapiens, UniProt P28223); assay: Displacement of [3H]ketanserin from human 5-HT2A receptor expressed in CHO-K1 cells incubated for 1 hr by radioligand binding assay; assay type: cell-based
[6] = biological target: 5-hydroxytryptamine receptor 2B (Homo sapiens, UniProt P41595); assay: Binding affinity to 5-HT2B receptor (unknown origin) incubated for 1 hr by radioligand binding assay
[7] = biological target: T4, 5-hydroxytryptamine receptor 1A (Homo sapiens, UniProt P08908); assay: Displacement of [3H]-8-OH-DPAT from human 5-HT1A receptor expressed in HEK293 cells incubated for 1 hr by radioligand binding assay; assay type: cell-based
T4 sequence (P08908 whole entry): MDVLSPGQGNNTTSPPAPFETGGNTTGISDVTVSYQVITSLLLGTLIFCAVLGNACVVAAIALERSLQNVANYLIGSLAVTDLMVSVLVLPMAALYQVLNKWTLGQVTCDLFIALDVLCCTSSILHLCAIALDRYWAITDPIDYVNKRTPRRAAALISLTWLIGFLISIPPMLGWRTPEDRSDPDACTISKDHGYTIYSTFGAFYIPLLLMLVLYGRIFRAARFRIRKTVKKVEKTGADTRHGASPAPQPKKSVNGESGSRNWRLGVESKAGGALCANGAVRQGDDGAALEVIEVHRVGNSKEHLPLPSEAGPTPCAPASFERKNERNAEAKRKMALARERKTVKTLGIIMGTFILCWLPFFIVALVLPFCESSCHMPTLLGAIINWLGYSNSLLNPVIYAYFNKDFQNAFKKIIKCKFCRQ

[8] = biological target: 5-hydroxytryptamine receptor 6 (Homo sapiens, UniProt P50406); assay: Displacement of [3H]LSD from human 5-HT6 receptor expressed in HEK293 cells incubated for 1 hr by radioligand binding assay; assay type: cell-based
5-hydroxytryptamine receptor 6, sequence (P50406 whole entry): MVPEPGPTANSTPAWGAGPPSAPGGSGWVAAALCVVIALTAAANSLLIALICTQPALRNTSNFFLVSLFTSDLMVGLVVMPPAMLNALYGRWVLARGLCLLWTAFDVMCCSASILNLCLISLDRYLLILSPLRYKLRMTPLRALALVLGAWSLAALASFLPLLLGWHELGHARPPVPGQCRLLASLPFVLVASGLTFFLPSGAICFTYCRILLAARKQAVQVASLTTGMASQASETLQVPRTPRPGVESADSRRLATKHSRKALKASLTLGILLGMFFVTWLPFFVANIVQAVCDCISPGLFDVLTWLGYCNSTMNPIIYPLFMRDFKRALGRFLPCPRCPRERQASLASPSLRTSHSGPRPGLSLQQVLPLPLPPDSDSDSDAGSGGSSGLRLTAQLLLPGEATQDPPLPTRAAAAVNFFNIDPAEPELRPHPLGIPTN

5-hydroxytryptamine receptor 7, sequence (P34969 whole entry): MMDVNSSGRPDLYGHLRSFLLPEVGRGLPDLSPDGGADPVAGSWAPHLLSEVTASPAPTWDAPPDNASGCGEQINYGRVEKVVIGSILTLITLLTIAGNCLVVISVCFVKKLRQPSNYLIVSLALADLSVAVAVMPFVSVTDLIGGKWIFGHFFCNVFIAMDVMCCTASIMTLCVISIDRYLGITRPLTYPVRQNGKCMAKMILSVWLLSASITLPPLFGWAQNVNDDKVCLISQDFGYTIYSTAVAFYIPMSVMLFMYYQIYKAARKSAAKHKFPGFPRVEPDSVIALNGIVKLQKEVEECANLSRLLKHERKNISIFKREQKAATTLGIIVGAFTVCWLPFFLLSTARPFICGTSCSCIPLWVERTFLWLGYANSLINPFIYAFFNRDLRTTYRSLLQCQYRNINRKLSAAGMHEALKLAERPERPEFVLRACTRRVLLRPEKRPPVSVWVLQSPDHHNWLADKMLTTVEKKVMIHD
5-hydroxytryptamine receptor 2A, sequence (P28223 whole entry): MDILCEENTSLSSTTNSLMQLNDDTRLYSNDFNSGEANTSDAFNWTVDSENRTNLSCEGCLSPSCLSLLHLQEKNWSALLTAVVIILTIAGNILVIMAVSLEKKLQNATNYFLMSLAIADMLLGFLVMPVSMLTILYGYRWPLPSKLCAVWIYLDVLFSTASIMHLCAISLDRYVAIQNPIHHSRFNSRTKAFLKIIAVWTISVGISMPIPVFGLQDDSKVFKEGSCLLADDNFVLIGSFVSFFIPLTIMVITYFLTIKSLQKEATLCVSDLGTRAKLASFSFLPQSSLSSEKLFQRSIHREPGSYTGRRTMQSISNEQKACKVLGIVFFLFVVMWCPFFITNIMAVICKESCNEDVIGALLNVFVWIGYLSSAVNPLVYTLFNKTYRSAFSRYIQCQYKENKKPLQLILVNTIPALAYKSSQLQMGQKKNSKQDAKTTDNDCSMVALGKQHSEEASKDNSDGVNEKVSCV
5-hydroxytryptamine receptor 2B, sequence (P41595 whole entry): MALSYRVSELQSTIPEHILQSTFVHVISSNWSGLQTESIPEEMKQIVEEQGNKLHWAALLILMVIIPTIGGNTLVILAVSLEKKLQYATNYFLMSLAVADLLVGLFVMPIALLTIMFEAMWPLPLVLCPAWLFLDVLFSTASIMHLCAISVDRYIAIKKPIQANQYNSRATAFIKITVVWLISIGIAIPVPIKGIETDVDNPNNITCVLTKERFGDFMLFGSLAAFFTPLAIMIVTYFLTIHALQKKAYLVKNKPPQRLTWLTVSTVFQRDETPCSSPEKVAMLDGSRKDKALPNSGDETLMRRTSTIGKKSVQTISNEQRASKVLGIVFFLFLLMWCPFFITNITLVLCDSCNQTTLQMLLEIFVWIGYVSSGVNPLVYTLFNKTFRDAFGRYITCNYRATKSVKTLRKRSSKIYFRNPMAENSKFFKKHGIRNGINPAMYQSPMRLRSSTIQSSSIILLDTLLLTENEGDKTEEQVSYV

Row | Ki [1] [µM] | Ki [2] [µM] | Ki [3] [µM] | Ki [4] [µM] | Ki [5] [µM] | Ki [6] [µM] | Ki [7] [µM] | Ki [8] [µM] | SMILES
1 | 5.5 | 0.37 | > 10 | > 10 | 0.338 | 0.708 | > 1 | > 10 | C[C@H]([C@H](O)c1ccc(O)cc1)N1CCC(Cc2ccccc2)CC1
2 | 1.6 | 0.14 | 0.748 | 0.513 | 0.421 | 0.095 | > 1 | > 1 | C[C@@H]([C@H](O)c1ccc(O)cc1)N1CCC(Cc2ccccc2)CC1 [(R,S)-IFENPRODIL]
3 | 6.1 | 0.53 | > 10 | > 10 | 0.369 | > 1 | > 1 | > 10 | C[C@@H]([C@@H](O)c1ccc(O)cc1)N1CCC(Cc2ccccc2)CC1 [(S)-IFENPRODIL]
4 | 2.3 | 0.027 | > 10 | > 10 | 0.51 | 0.066 | 0.046 | > 1 | C[C@H]([C@@H](O)c1ccc(O)cc1)N1CCC(Cc2ccccc2)CC1 [(S,R)-IFENPRODIL]
